Reference: patent US11759455B2, “Substituted 1H-imidazo[4,5-b]pyridin-2(3H)-ones and their use as GLUN2B receptor modulators” (JANSSEN PHARMACEUTICA NV, priority 2016, dated 2023)
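Further: stable Tet-On inducible cell line, Ca2+ influx triggered by glutamate at about EC40 plus 10 µM glycine, fluorescent dye read-out over 5 min, normalized to control wells.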

The compounds below were run against T1, human GluN1/GluN2B NMDA receptors (Homo sapiens, UniProt Q13224) (assay: Cell-based calcium flux (FLIPR) assay on cloned human NR1/NR2B ion channels expressed in mammalian cells (standard and HTS buffer variants)). Settings: standard assay buffer (0.5 mM MgCl2 dye loading; 137 mM NaCl, 4 mM KCl assay buffer), human GluN1/GluN2B cells, read-out: NR2B IC50 (μM) standard assay.
T1 construct: expressed in transfected cells
T1 sequence (Q13224 27-1484, other chains not shown): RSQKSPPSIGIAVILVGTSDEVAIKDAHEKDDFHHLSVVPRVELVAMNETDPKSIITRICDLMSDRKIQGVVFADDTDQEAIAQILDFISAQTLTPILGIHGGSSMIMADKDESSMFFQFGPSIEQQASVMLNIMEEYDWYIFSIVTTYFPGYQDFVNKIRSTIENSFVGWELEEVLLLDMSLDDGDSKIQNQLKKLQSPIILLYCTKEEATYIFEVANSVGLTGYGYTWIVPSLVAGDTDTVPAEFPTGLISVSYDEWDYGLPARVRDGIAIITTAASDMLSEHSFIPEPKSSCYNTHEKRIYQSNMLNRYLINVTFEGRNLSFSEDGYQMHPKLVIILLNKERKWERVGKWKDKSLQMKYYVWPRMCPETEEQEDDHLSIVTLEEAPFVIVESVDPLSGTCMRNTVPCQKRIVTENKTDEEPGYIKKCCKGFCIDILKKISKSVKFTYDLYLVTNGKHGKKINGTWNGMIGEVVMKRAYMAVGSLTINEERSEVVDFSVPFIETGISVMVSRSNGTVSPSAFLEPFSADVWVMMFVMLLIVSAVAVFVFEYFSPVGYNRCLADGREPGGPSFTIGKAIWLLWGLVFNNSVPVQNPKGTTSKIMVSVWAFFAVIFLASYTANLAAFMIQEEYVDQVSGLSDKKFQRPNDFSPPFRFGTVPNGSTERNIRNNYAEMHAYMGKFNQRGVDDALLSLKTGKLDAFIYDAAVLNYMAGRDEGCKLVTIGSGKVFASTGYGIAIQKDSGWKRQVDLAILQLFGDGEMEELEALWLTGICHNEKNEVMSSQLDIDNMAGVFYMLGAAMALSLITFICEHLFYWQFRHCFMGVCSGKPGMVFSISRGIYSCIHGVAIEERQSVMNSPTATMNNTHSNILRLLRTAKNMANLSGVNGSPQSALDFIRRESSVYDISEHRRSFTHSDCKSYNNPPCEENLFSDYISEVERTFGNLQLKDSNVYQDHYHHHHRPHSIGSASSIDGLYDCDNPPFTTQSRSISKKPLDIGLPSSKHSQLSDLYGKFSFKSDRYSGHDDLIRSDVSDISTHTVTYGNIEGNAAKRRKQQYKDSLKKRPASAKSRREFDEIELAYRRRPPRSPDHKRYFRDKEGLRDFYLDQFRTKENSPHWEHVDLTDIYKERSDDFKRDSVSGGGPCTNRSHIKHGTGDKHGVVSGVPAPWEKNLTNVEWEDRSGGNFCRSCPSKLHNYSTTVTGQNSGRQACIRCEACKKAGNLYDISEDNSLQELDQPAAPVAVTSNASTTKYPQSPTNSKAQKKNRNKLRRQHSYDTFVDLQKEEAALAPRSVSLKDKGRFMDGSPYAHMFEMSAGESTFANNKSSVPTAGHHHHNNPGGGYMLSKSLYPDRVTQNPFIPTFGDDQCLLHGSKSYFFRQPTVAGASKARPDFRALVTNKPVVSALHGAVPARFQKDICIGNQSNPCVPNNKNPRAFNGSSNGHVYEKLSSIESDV
`O=C(O)Cn1c(=O)[nH]c2ncc(-c3cccc(C(F)(F)F)c3)cc21` [Example 135, 2-[2-Oxo-6-[3-(trifluoromethyl)phenyl]-3H-imidazo[4,5-1D]pyridin-1-yl]acetic Acid] gave an IC50 of 6 µM. With `CCOC(=O)Cn1c(=O)n(C)c2ncc(-c3cccc(C(F)(F)F)c3)cc21` [Example 136, Ethyl 2-[3-methyl-2-oxo-6-[3-(trifluoromethyl)phenyl]imidazo[4,5-b]pyridin-1-yl]acetate] the IC50 was 0.159 µM. For `Cn1c(=O)n(CC(=O)O)c2cc(-c3cccc(C(F)(F)F)c3)cnc21` [Example 137, 2-[3-Methyl-2-oxo-6-[3-(trifluoromethyl)phenyl]imidazo[4,5-b]pyridin-1-yl]Acetic Acid], the IC50 was over 10 µM. Work on `Cn1c(=O)n(CC(=O)N2CC(F)(F)C2)c2cc(-c3cccc(C(F)(F)F)c3)cnc21` [Example 138, 1-[2-(3,3-difluoroazetidin-1-yl)-2-oxo-ethyl]-3-methyl-6-[3-(trifluoromethyl)phenyl]imidazo[4,5-b]pyridin-2-one] yielded an IC50 of 0.089 µM. With `Cc1c(F)ccc(-c2cnc3c(c2)n(Cc2cnccn2)c(=O)n3C)c1F` [Example 139, 6-(2,4-Difluoro-3-methyl-phenyl)-3-methyl-1-(pyrazin-2-ylmethyl)imidazo[4,5-b]pyridin-2-one] the IC50 was 0.084 µM. `Cc1noc(Cn2c(=O)[nH]c3ncc(-c4ccc(F)cc4)cc32)n1` [Example 140, 6-(4-Fluorophenyl)-1-[(3-methyl-1,2,4-oxadiazol-5-yl)methyl]-3H-imidazo[4,5-b]pyridin-2-one] showed an IC50 of 0.105 µM. Compound `Cn1cnc(Cn2c(=O)[nH]c3ncc(-c4ccc(F)cc4)cc32)n1` [Example 141, 6-(4-Fluorophenyl)-1-[(1-methyl-1,2,4-triazol-3-yl)methyl]-3H-imidazo[4,5-b]pyridin-2-one] has an IC50 of 1.18 µM. `Cn1cc(Cn2c(=O)[nH]c3ncc(-c4ccc(F)cc4)cc32)nn1` [Example 142, 6-(4-Fluorophenyl)-1-[(1-methyltriazol-4-yl)methyl]-3H-imidazo[4,5-b]pyridin-2-one] was tested, and the IC50 was 0.208 µM. In the case of `Cc1noc(Cn2c(=O)[nH]c3ncc(-c4ccc(F)c(F)c4)cc32)n1` [Example 143, 6-(3,4-Difluorophenyl)-1-[(3-methyl-1,2,4-oxadiazol-5-yl)methyl]-3H-imidazo[4,5-b]pyridin-2-one], the IC50 is reported as 0.075 µM. In the case of `Cc1nc(Cn2c(=O)[nH]c3ncc(-c4ccc(F)c(F)c4)cc32)no1` [Example 144, 6-(3,4-Difluorophenyl)-1-[(5-methyl-1,2,4-oxadiazol-3-yl)methyl]-3H-imidazo[4,5-b]pyridin-2-one], the IC50 is reported as 0.107 µM. With `COCc1noc(Cn2c(=O)[nH]c3ncc(-c4ccc(F)c(F)c4)cc32)n1` [Example 145, 6-(3,4-Difluorophenyl)-1-[[3-(methoxymethyl)-1,2,4-oxadiazol-5-yl]methyl]-3H-imidazo[4,5-b]pyridin-2-one] the IC50 was 1.31 µM. With `O=c1[nH]c2ncc(-c3cccc(C(F)(F)F)c3)cc2n1CCN1CCCC1` [Example 146, 1-(2-Pyrrolidin-1-ylethyl)-6-[3-(trifluoromethyl)phenyl]-3H-imidazo[4,5-b]pyridin-2-one] the IC50 was 0.506 µM. `O=c1[nH]c2ncc(-c3cccc(C(F)(F)F)c3)cc2n1CCN1CC(O)C1` [Example 147, 1-[2-(3-Hydroxyazetidin-1-yl)ethyl]-6-[3-(trifluoromethyl)phenyl]-3H-imidazo[4,5-b]pyridin-2-one] showed an IC50 of 0.365 µM. `O=c1[nH]c2ncc(-c3cccc(C(F)(F)F)c3)cc2n1CCNC1CC1` [Example 148, 1-[2-(Cyclopropylamino)ethyl]-6-[3-(trifluoromethyl)phenyl]-3H-imidazo[4,5-b]pyridin-2-one] was tested, and the IC50 was 0.505 µM. `COC1CN(CCn2c(=O)[nH]c3ncc(-c4cccc(C(F)(F)F)c4)cc32)C1` [Example 149, 1-[2-(3-Methoxyazetidin-1-yl)ethyl]-6-[3-(trifluoromethyl)phenyl]-3H-imidazo[4,5-b]pyridin-2-one] was tested, and the IC50 was 0.756 µM. In the case of `O=c1[nH]c2ncc(-c3cccc(C(F)(F)F)c3)cc2n1CCNC1CCC1` [Example 150, 1-[2-(Cyclobutylamino)ethyl]-6-[3-(trifluoromethyl)phenyl]-3H-imidazo[4,5-b]pyridin-2-one], the IC50 is reported as 0.277 µM. `Cc1cc(F)ccc1-c1cnc2[nH]c(=O)n(CCN3CCC3)c2c1` [Example 151, 1-[2-(Azetidin-1-yl)ethyl]-6-(4-fluoro-2-methyl-phenyl)-3H-imidazo[4,5-b]pyridin-2-one] gave an IC50 of 0.115 µM. Work on `Cc1ccccc1-c1cnc2[nH]c(=O)n(CCN3CCC3)c2c1` [Example 152, 1-[2-(Azetidin-1-yl)ethyl]-6-(o-tolyl)-3H-imidazo[4,5-b]pyridin-2-one] yielded an IC50 of 0.127 µM. `O=c1[nH]c2ncc(-c3ccccc3)cc2n1CCN1CCC1` [Example 153, 1-[2-(Azetidin-1-yl)ethyl]-6-phenyl-3H-imidazo[4,5-b]pyridin-2-one] was tested, and the IC50 was 0.283 µM. With `Cc1cccc(-c2cnc3[nH]c(=O)n(CCN4CCC4)c3c2)c1` [Example 154, 1-[2-(Azetidin-1-yl)ethyl]-6-(m-tolyl)-3H-imidazo[4,5-b]pyridin-2-one] the IC50 was 0.077 µM. `O=c1[nH]c2ncc(-c3ccnc(C(F)(F)F)c3)cc2n1CCN1CCC1` [Example 155, 1-[2-(Azetidin-1-yl)ethyl]-6-[2-(trifluoromethyl)-4-pyridyl]-3H-imidazo[4,5-b]pyridin-2-one] showed an IC50 of 1.75 µM. With `Cc1cc(-c2cnc3[nH]c(=O)n(CCN4CCC4)c3c2)ccc1F` [Example 156, 1-[2-(Azetidin-1-yl)ethyl]-6-(4-fluoro-3-methyl-phenyl)-3H-imidazo[4,5-b]pyridin-2-one] the IC50 was 0.039 µM. Work on `Cc1cccc(C)c1-c1cnc2[nH]c(=O)n(CCN3CCC3)c2c1` [Example 157, 1-[2-(Azetidin-1-yl)ethyl]-6-(2,6-dimethylphenyl)-3H-imidazo[4,5-b]pyridin-2-one] yielded an IC50 of 1.97 µM. `O=c1[nH]c2ncc(-c3cccc(Cl)c3)cc2n1CCN1CCC1` [Example 158, 1-[2-(Azetidin-1-yl)ethyl]-6-(3-chlorophenyl)-3H-imidazo[4,5-b]pyridin-2-one] was tested, and the IC50 was 0.201 µM. With `O=c1[nH]c2ncc(-c3cc(F)cc(F)c3)cc2n1CCN1CCC1` [Example 159, 1-[2-(Azetidin-1-yl)ethyl]-6-(3,5-difluorophenyl)-3H-imidazo[4,5-b]pyridin-2-one] the IC50 was 0.211 µM. With `O=c1[nH]c2ncc(-c3cccc(OC(F)(F)F)c3)cc2n1CCN1CCC1` [Example 160, 1-[2-(Azetidin-1-yl)ethyl]-6-[3-(trifluoromethoxy)phenyl]-3H-imidazo[4,5-b]pyridin-2-one] the IC50 was 0.311 µM. In the case of `O=c1[nH]c2ncc(-c3cccc(C(F)(F)F)c3)cc2n1CCN1CCCCC1` [Example 161, 1-[2-(1-Piperidyl)ethyl]-6-[3-(trifluoromethyl)phenyl]-3H-imidazo[4,5-b]pyridin-2-one], the IC50 is reported as 1.43 µM. `O=c1[nH]c2ncc(-c3cccc(C(F)(F)F)c3)cc2n1CCN1CCC(F)CC1` [Example 162, 1-[2-(4-Fluoro-1-piperidyl)ethyl]-6-[3-(trifluoromethyl)phenyl]-3H-imidazo[4,5-b]pyridin-2-one] showed an IC50 of 1.1 µM. `O=c1[nH]c2ncc(-c3cccc(C(F)(F)F)c3)cc2n1CCN1CC(F)C1` [Example 163, 1-[2-(3-Fluoroazetidin-1-yl)ethyl]-6-[3-(trifluoromethyl)phenyl]-3H-imidazo[4,5-b]pyridin-2-one] gave an IC50 of 0.246 µM. `CC1CCN(CCn2c(=O)[nH]c3ncc(-c4cccc(C(F)(F)F)c4)cc32)C1` (stereo not shown) [Example 164, 1-[2-(3-Methylpyrrolidin-1-yl)ethyl]-6-[3-(trifluoromethyl)phenyl]-3H-imidazo[4,5-b]pyridin-2-one] was tested, and the IC50 was 1.22 µM. Compound `O=c1[nH]c2ncc(-c3cccc(C(F)(F)F)c3)cc2n1CCN1CC(C(F)(F)F)C1` [Example 166, 1-[2-[3-(Trifluoromethyl)azetidin-1-yl]ethyl]-6-[3-(trifluoromethyl)phenyl]-3H-imidazo[4,5-b]pyridin-2-one] has an IC50 of 3.48 µM. For `O=c1[nH]c2ncc(-c3cccc(C(F)(F)F)c3)cc2n1CCN1CC(F)(F)C1` [Example 167, 1-[2-(3,3-Difluoroazetidin-1-yl)ethyl]-6-[3-(trifluoromethyl)phenyl]-3H-imidazo[4,5-b]pyridin-2-one], the IC50 was 0.158 µM. `Cc1c(-c2cnc3[nH]c(=O)n(CCN4CCC4)c3c2)cccc1C(F)(F)F` [Example 168, 1-[2-(Azetidin-1-yl)ethyl]-6-[2-methyl-3-(trifluoromethyl)phenyl]-3H-imidazo[4,5-b]pyridin-2-one] was tested, and the IC50 was 4.23 µM. With `Cc1cccc(-c2cnc3[nH]c(=O)n(CCN4CCC4)c3c2)c1C` [Example 169, 1-[2-(Azetidin-1-yl)ethyl]-6-(2,3-dimethylphenyl)-3H-imidazo[4,5-b]pyridin-2-one] the IC50 was 0.217 µM. For `Cc1cc(C)cc(-c2cnc3[nH]c(=O)n(CCN4CCC4)c3c2)c1` [Example 170, 1-[2-(Azetidin-1-yl)ethyl]-6-(3,5-dimethylphenyl)-3H-imidazo[4,5-b]pyridin-2-one], the IC50 was 0.581 µM. For `Cc1c(F)ccc(-c2cnc3[nH]c(=O)n(CCN4CCC4)c3c2)c1C` [Example 171, 1-[2-(Azetidin-1-yl)ethyl]-6-(4-fluoro-2,3-dimethyl-phenyl)-3H-imidazo[4,5-b]pyridin-2-one], the IC50 was 0.21 µM. Compound `Cc1ccc(C(F)(F)F)cc1-c1cnc2[nH]c(=O)n(CCN3CCC3)c2c1` [Example 172, 1-[2-(Azetidin-1-yl)ethyl]-6-[2-methyl-5-(trifluoromethyl)phenyl]-3H-imidazo[4,5-b]pyridin-2-one] has an IC50 of 0.326 µM. `O=c1[nH]c2ncc(-c3cc(F)cc(F)c3)cc2n1CCNCCO` [Example 173, 6-(3,5-Difluorophenyl)-1-[2-(2-hydroxyethylamino)ethyl]-3H-imidazo[4,5-b]pyridin-2-one] showed an IC50 of 4.26 µM. Work on `O=c1[nH]c2ncc(-c3cc(F)cc(F)c3)cc2n1CCN1CCCC1` [Example 174, 6-(3,5-Difluorophenyl)-1-(2-pyrrolidin-1-ylethyl)-3H-imidazo[4,5-b]pyridin-2-one] yielded an IC50 of 1.25 µM. `O=c1[nH]c2ncc(-c3cc(F)cc(F)c3)cc2n1CCN1CCC(O)C1` (stereo not shown) [Example 175, 6-(3,5-Difluorophenyl)-1-[2-(3-hydroxypyrrolidin-1-yl)ethyl]-3H-imidazo[4,5-b]pyridin-2-one] gave an IC50 of 2.11 µM.
